According to ChEMBL document CHEMBL1201862, “PubChem BioAssay data set” (2004):
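Growth conditions: 96-well plates. Treatment: test compound, 48 hours, 5 concentrations. Analysis: linear interpolation between bracketing concentrations; unreached endpoints set to highest concentration. GI50 is the concentration that inhibits growth by half.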 Active and inactive are the calls of the source. No stated cut-off is given here; in the data, active = GI50 up to about 1.1 µM and inactive = higher.

Key:
Experiment in all cases: inhibition of tumour cell growth, NCI panel, 48 h
A498 = tested on: A498
KM12 = tested on: KM12
DMS-273 = tested on: DMS-273
RPMI-8226 = tested on: RPMI-8226
KM-20L2 = tested on: KM-20L2
CCRF-CEM = tested on: CCRF-CEM
NCI-H23 = tested on: NCI-H23
OVCAR-5 = tested on: OVCAR-5
OVCAR-4 = tested on: OVCAR-4
NCI-H460 = tested on: NCI-H460
M14 = tested on: M14
HCT-15 = tested on: HCT-15
HT-29 = tested on: HT-29
TK-10 = tested on: TK-10
CAKI-1 = tested on: CAKI-1
NCI-H226 = tested on: NCI-H226
SR = tested on: SR
SW-620 = tested on: SW-620
OVCAR-3 = tested on: OVCAR-3

Row | Structure (SMILES) | GI50 (A498) | GI50 (KM12) | GI50 (DMS-273) | GI50 (RPMI-8226) | GI50 (KM-20L2) | GI50 (CCRF-CEM) | GI50 (NCI-H23) | GI50 (OVCAR-5) | GI50 (OVCAR-4) | GI50 (NCI-H460) | GI50 (M14) | GI50 (HCT-15) [µM] | GI50 (HT-29) | GI50 (TK-10) | GI50 (CAKI-1) | GI50 (NCI-H226) | GI50 (SR) | GI50 (SW-620) | GI50 (OVCAR-3)
1 | O=C(Nc1ccc(Cl)c(Cl)c1)C(=O)Nn1c(S)nc2ccccc2c1=O | > 100 µM (inactive) | > 100 µM (inactive) | > 100 µM (inactive) | > 100 µM (inactive) | > 100 µM (inactive) | > 100 µM (inactive) | 76.9 µM (inactive) | > 100 µM (inactive) | > 100 µM (inactive) | > 100 µM (inactive) | > 100 µM (inactive) | > 100 | > 100 µM (inactive) | > 100 µM (inactive) | > 100 µM (inactive) | > 100 µM (inactive) | > 100 µM (inactive) | > 100 µM (inactive) | 
2 | COc1ccc2c(CCNS(=O)(=O)c3ccccc3)c(C(C)=O)[nH]c2c1[N+](=O)[O-] | > 100 µM (inactive) | > 100 µM (inactive) | > 100 µM (inactive) | > 100 µM (inactive) | > 100 µM (inactive) | > 100 µM (inactive) | > 100 µM (inactive) | > 100 µM (inactive) | 28.4 µM (inactive) | > 100 µM (inactive) | > 100 µM (inactive) | > 100 | > 100 µM (inactive) |  | > 10 µM (inactive) | 43.3 µM (inactive) | > 100 µM (inactive) | > 100 µM (inactive) | > 100 µM (inactive)
3 | O=C(CC(=O)Nc1cccc(Cl)c1)NNCC(=O)Nc1nnc(-c2ccccc2)s1 | 20.8 µM (inactive) | > 100 µM (inactive) | 38.4 µM (inactive) | 14.2 µM (inactive) | > 100 µM (inactive) |  | 94.6 µM (inactive) | > 100 µM (inactive) | 2.46 µM (inactive) | 11.1 µM (inactive) | 30.4 µM (inactive) | 39.3 | 80 µM (inactive) | 45.2 µM (inactive) | > 100 µM (inactive) | 22.9 µM (inactive) | 41.2 µM (inactive) | 39.4 µM (inactive) | 32.7 µM (inactive)
4 | CN(C)CCCSc1c2ccccc2nc2cc(NCC(=O)Nc3ccccc3-c3ccccc3NC(=O)CNc3ccc4c(SCCCN(C)C)c5ccccc5nc4c3)ccc12 | > 100 µM (inactive) | 84.3 µM (inactive) | > 100 µM (inactive) | 65 µM (inactive) | > 100 µM (inactive) | 25.3 µM (inactive) | > 100 µM (inactive) | > 100 µM (inactive) | > 100 µM (inactive) | > 100 µM (inactive) | > 100 µM (inactive) | > 100 | > 100 µM (inactive) | > 100 µM (inactive) | > 100 µM (inactive) | > 100 µM (inactive) | > 100 µM (inactive) | > 100 µM (inactive) | > 100 µM (inactive)
5 | CC(C)(C)c1cc(Oc2ccc(C#N)c(C#N)c2)cc(C(C)(C)C)c1 | > 100 µM (inactive) | > 100 µM (inactive) | 14.1 µM (inactive) | > 100 µM (inactive) | > 100 µM (inactive) | 38.3 µM (inactive) | > 100 µM (inactive) | > 100 µM (inactive) | > 100 µM (inactive) | 39.9 µM (inactive) | > 100 µM (inactive) | 48.3 | > 100 µM (inactive) | > 100 µM (inactive) | > 100 µM (inactive) | > 100 µM (inactive) | 19.8 µM (inactive) |  | > 100 µM (inactive)
6 | COc1ccc(-c2cc(-c3ccccc3)c(C#N)c(=O)[nH]2)cc1 | > 100 µM (inactive) | > 100 µM (inactive) | > 100 µM (inactive) | > 100 µM (inactive) | > 100 µM (inactive) | > 100 µM (inactive) | > 100 µM (inactive) | > 100 µM (inactive) | > 100 µM (inactive) | > 100 µM (inactive) | > 100 µM (inactive) | > 100 | > 100 µM (inactive) | > 100 µM (inactive) |  | > 100 µM (inactive) | > 100 µM (inactive) | > 100 µM (inactive) | > 100 µM (inactive)
7 | COc1cccc(-c2cc(C(=O)Nc3ccc(Cl)cc3)nc(N)n2)c1 | 61.9 µM (inactive) | 43.7 µM (inactive) | 85.7 µM (inactive) | 53.1 µM (inactive) | 61.4 µM (inactive) | > 100 µM (inactive) | 75 µM (inactive) | > 100 µM (inactive) | > 100 µM (inactive) | 36.8 µM (inactive) | 37.3 µM (inactive) | 41.5 | 45.5 µM (inactive) | > 100 µM (inactive) | > 100 µM (inactive) | > 100 µM (inactive) | 45.1 µM (inactive) | 36.7 µM (inactive) | 35.3 µM (inactive)
8 | COC(=O)c1c/c(=N\NC(=O)CC(=O)Nc2ccc(C)cc2)c2ccccc2o1 | > 100 µM (inactive) | > 100 µM (inactive) | > 100 µM (inactive) | > 100 µM (inactive) | > 100 µM (inactive) | > 100 µM (inactive) | > 100 µM (inactive) | > 100 µM (inactive) | > 100 µM (inactive) | > 100 µM (inactive) | > 100 µM (inactive) | > 100 | > 100 µM (inactive) | > 100 µM (inactive) | > 100 µM (inactive) | > 100 µM (inactive) | > 100 µM (inactive) | > 100 µM (inactive) | > 100 µM (inactive)
